According to US10478421B1, “Sortilin binding compounds, formulations, and uses thereof” (University of Florida, priority 2016, dated 2019):
Several values for one entry are separate records, joined by “and”; a condition that tells them apart may be missing. Equal values may be shown once.

Assays:
LDLR = test: Cellular LDLR by immunoblot in McA cells; type: cell-based, rat; details: 10 μM, 18 h, 1% BSA/DMEM
Procedure: McA cells were incubated in 1% BSA/DMEM with DMSO, 541 (10 μM) or 984 (10 μM) for 18 h. Cellular proteins were extracted and analyzed by IB for LDLR (LS-C146979, 1:2000) (FIG. 5A) or PCSK9 (Ab125251, 1:2000) (FIG. 5B) using HRP-linked secondary antibody and ECL detection. Loading controls included β-ACTIN (Rockland ph600-401-886) and GAPDH (cb1001mAb (6C5). Band intensities were measured using ChemiDocXRS+ system and evaluated using ImageLab 5.1 software (BioRad). Results are average of triplicates ±S.D. PCSK9 is a known ligand for sortilin where sortilin acts as a chaperone for PCSK9 secretion.

McA cells = test: Insulin signaling (pY-IRβ, p-AKT S473) by immunoblotting in McA cells; type: cell-based, rat; details: 10 μM, 18 h, then 250 nM insulin
Procedure: (FIG. 4A) McA cell lines with variable sortilin KD were incubated with vehicle (black bars) or with 10 μM cpd984 (gray bars) for 18 h (3-100 mm plates per condition). […] VLDL was isolated from media of each plate and VLDL-B100 was quantified by immuno slot blotting. Results presented are averages of the 3 plates ±S.D. (FIG. 4B) McA cells were incubated for 18 h in 1% BSA/DMEM±10 μM cpd984. McA cells were then stimulated with a time course of 250 nM insulin (0, 5, 10 and 15 min). IRβ and AKT, pY-IRβ, and p-AKT (S473) were evaluated by immunoblotting using protein and phosphospecific antibodies.
McA cell lysates were prepared and denatured proteins were separated by SDS-PAGE as described previously. Following electrophoretic transfer to PVDF membranes and blocking non-specific binding, membranes were incubated with primary antibodies overnight at 4° C. in blocking buffer. Antibody binding was detected by incubation for 1-2 h at room temperature with species specific secondary HRP-linked antibodies and developed using Amersham™ Prime reagent (GE Healthcare). Insulin signaling to IRβ and AKT were evaluated using nitrocellulose membranes (Bio-Rad) and phosphospecific (pY, p-AKT(Ser473) and mass specific antibodies. Chemiluminescence was measured using the ChemiDocXRS+system (Bio-Rad) and band intensities quantified using Image Lab 3.0.1 software (Bio-Rad).

hsortilin [1] = target: T1, hsortilin (Homo sapiens, UniProt Q99523); test: Surface plasmon resonance of NT and cpd984 on immobilized hsortilin (Ni-NTA chip, Example 1); type: binding
T1 construct: Human sortilin (hsortilin) (Ser78-Asn755) with C-terminal 6-His tag; purchased R&D Systems, Inc. (Minneapolis, Minn.)
T1 sequence (Q99523 78-755): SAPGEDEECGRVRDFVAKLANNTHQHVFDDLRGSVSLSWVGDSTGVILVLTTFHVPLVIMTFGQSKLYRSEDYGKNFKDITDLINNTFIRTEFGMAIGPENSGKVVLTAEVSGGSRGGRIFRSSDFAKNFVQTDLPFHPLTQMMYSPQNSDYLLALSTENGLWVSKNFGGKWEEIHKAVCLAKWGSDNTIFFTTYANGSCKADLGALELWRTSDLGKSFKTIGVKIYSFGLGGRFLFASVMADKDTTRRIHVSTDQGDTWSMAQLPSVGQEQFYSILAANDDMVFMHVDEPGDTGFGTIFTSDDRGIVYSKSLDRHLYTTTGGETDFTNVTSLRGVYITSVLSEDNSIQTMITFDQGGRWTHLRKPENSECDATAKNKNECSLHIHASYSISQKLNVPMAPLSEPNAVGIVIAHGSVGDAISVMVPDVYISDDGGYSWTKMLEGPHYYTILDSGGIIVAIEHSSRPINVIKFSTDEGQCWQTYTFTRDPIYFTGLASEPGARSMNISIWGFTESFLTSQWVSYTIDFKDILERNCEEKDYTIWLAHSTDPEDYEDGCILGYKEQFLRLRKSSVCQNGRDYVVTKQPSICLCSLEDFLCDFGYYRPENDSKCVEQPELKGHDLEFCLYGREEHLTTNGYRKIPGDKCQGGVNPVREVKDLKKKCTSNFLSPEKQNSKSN
Procedure: Surface plasmon resonance measurements were performed on a Biacore T200 instrument equipped with Ni-NTA sensor chips with ˜6800 response units (RU) for hsortilin covalently immobilized to the surface. HBS-DMSO running buffer (10 mM Hepes pH 7.4, 150 mM NaCl, 1% DMSO) was used at a flow rate of 30 μl/min and injections performed with times for association of 90 s, and dissociation of 300 s, followed by injection of buffer to regenerate the hsortilin surface. Binding was expressed in relative RU; the difference in response between the immobilized protein flow cell and the corresponding control flow cell.

hsortilin [2] = target: T1, hsortilin; test: Liposome floatation assay of hsortilin binding to PIP3 liposomes; details: increasing concentrations of cpd984
Procedure: Unilamellar liposomes containing specific lipid compositions were produced using lipids dissolved in chloroform that were mixed according to mole percentages of 2.6 μmoles total phospholipid. Lipids were dried and desiccated overnight followed by incubation with PBS (2.6 ml) for 1 h. Lipids were resuspended by vortexing and disrupted by sonication for 30 min. To measure binding, a liposome floatation assay was used by adding concentrations 50 nM or 100 nM hsortilin to liposomes (150 μl) containing 5% PIP3, 20% PE and 75% PC; 10% PIP3, 20% PE, 70% PC; or 0% PIP3, 80% PC, and 20% PE as described. Samples containing 50 nM or 100 nM protein and liposomes in the presence and absence of cpd984 were incubated for 10 min at 30° C. and 630 μl of 1.65 M sucrose/PBS was added. Samples were overlaid with 630 μl of 0.75 M sucrose/PBS, and PBS to the top of the tube and centrifuged (200,000×g, 90 min, 4° C.), and floated liposomes recovered from the 0.75 M sucrose layer. Liposomes at the interface of the top and second fraction were recovered and diluted in 2 ml of PBS and re-isolated by centrifugation (16,000×g, 20 min, 4° C.). 50 μl PBS and 20 μl 5×SDS sample buffer was added to the final liposome pellet. Bound proteins were resolved by SDS-PAGE and detected by western immunoblotting following transfer to PVDF membranes.

## CN1CCC[C@H]1C(=O)Nc1cccc(NC(=O)CCc2ccccc2)c1 [cpd984, (2S)-1-methyl-N-{3-[(3-phenylpropanoyl)-amino]phenyl} pyrrolidine-2-carboxamide]
LDLR
  effect on LDL receptors: increase in LDL receptors
McA cells
  effect on insulin sensitivity (insulin-dependent pY of IRβ, pAKT): did not alter insulin sensitivity
Hsortilin [1]; 100 nM NT injected with 500 μM cpd984
  SPR binding response: 64.1 RU and 64.7 RU
Hsortilin [1]; 100 nM NT with 500 μM cpd984, average
  averaged RU of NT co-injected with 984: 64.4 RU
Hsortilin [1]; 100 nM NT, 500 μM cpd984
  increase in binding to hsortilin for co-injected NT over the combination of NT and cpd984 alone: 14.5 RU
Hsortilin [1]; 500 μM cpd984 alone
  SPR binding response: 45.1 RU and 44.8 RU
Hsortilin [1]; sum of averaged responses injected alone
  RU of 500 μM cpd984 and 100 nM NT (sum of separate injections): 50.0 RU
Hsortilin [2]
  effect on sortilin binding to PIP3 liposomes: increased sortilin binding to PIP3 liposomes
